Several values for one entry are separate records, joined by “and”; a condition that tells them apart may be missing. Identical values can stand only once. Like-named read-outs stand apart in the source and are kept apart here.
Columns and labels:
Syrian Golden hamsters = assay: In vivo serum cholesterol lowering in hamsters fed a cholesterol test diet; conditions: for inhibition in vivo at 100 mg/kg/day: Mesocricetus auratus, feed or water, 168 h, read-out: Percent Lowering of Cholesterol from Control Value Mean; for Serum Cholesterol Mean: 0.2% (w/w) in Cholesterol Test Diet for one week, equivalent to 100 mg/kg/day, groups of six, control mean 337
Procedure: Syrian Golden hamsters were fed a cholesterol test diet made of 10% coconut oil and 0.12% cholesterol (by weight) in Purina 5001 Rodent Chow to induce hypercholesteriolemia.
After two weeks on the cholesterol test diet the hamsters were bled from the orbital sinium under light CO2 anesthesia. Serum was prepared and analyzed for cholesterol using a commercial test kit (Cholesterol High Performance, Single Vial™, product of Boehringer Mannheim Corp., Indianapolis, IN, USA). The hamsters were separated into groups of six animals, such that each group had approximately the same mean serum cholesterol levels. Selected compounds of the invention were incorporated into the Cholesterol Test Diet at 0.2% (w/w) and fed to the hamsters for one week. A control group of hamsters continued on the Cholesterol Test Diet during the same one-week period. The dose of test compounds of the invention was equivalent to 100 mg/kg/day based on the weight of the hamsters and their diet consumption. Upon completion of the test period, the animals were bled and serum cholesterol determined as above.
Mean serum cholesterol values from the test hamsters were compared to values from the control group and tested for significance at the Z.05 level using Dunnett's test.

[1] = test system: human LDL receptor promoter; assay: in vitro Luciferase Activity Test (LDL receptor promoter-luciferase reporter in recombinant CHO cells); assay type: cell-based; design: MED: unit not given here; conditions: for Emax: Homo sapiens, CHO, read-out: MA%; for Emax / MA%: maximum activity (%) over control; for MED: minimum effective dose (molar concentration, unit not given), 24 hr, assay medium with 0.5 µg/ml 25-hydroxycholesterol; for RED: relative effective dose compared to compound of Example 4, below one = more active
Procedure: A 1546 base pair sequence of the human LDL receptor promoter was amplified using the polymerase chain reaction. A reaction mixture containing 20 pMoles each of the synthetic oligonucleotides 5'-[…]-3' (Seq. I.D. No: 1) and 5'-AAG-[…]-3', (Seq. I.D. No:2) 1 µg human genomic DNA purified from the adenocarcinoma cell line P3UCLA, 200 µM each of dATP, dGTP, dCTP, and TTP, 2.5 units of Taq DNA polymerase, 10mM Tris-HCI pH 8.3, 50 mM KCI, […], 0.1% gelatin in a final volume of 100 µl was subjected to 30 cycles of 15 sec at 96°C, 30 sec at 55°C, and 1 min at 72°C. The material was subject to gel electrophoresis on a 1% agarose gel and the 1546 base pair band was isolated and restriction enzyme digested with Hind III and Nde I. This fragment was ligated into the plasmid pSP72 (ProMega Biotech), which had previously been restriction enzyme nuclease digested with Hind III and Nde I. The resulting vector, pNLDLRP, was restriction endonulease digested with Ndel and Hind III and the material was again run on a 1% agarose gel to reisolate the 1546 bp LDL receptor sequence.
Plasmid vector PSv2 was constructed by digesting plasmid pSv2-globin with Hind III and Bgl II then ligating an Nrul-Xhol linker into the vector. Plasmid pSv2 globin is disclosed in U.S. Patent No. 4,775,624, the entire teaching of which is herein incorporated by reference. The linker contained the following sequences: [formula] (Seq. I.D. No: 3), and [formula] ' (Seq. I.D. No:4).
The resulting vector was designated pSv2-H NXB because it contained a […], an Nrul site, an Xhol site and a Bgl site. The Hind III-Bgl II fragment of plasmid pAlc4(NRRL B-18783), which contains the firefly luciferase gene, was then ligated into the Hin III-Bgl site of plasmid pSv2-HNXB. A neomycin resistance-conforming gene was then ligated into the Bam HI site of the resultant plasmid to form plasmid pSv2.
A 1546 base pair fragment was isolated and cloned into a Ndel and Hind III (partial) restriction digested vector pSv2 containing the firefly luciferase reporter gene and a gene for neomycin resistance. The resulting vector, pLDL-Luc1 Neo-10, contains the human LDL receptor promoter driving expression of the firefly luciferase gene, a gene coding for neomycin resistance, ampicillin resistant marker and an origin of replication.
Plasmid pLDL-Luc 1 Neo-10 was used to stably transfect Chinese Hamster Ovary cells using a Lipofection Reagent kit and procedure from Gibco BRL Research Products Division Life Technologies Inc. Transformants were selected by picking individual colonies grown in Dulbecco's modified Eagle's medium supplimented with 10% fetal bovine serum and containing 500 µg per ml […]. […] Clone S27/B30 was used for subsequent screening.
In developing a cell based screen it is important to have a negative control. The viral SV40 promoter is ideal for this purpose in that it has a number of SP1 elements that enhance gene transcription. These elements are not under the control of end product repression; but they do have a high degree of sequence homology with the 16 base pair long sterol response element found in the LDL receptor promoter. The SV40 promoter should therefore be a sensitive mechanism to screen out agents that induce nonspecific transcription.
Chinese Hamster Ovary cells were stably cotransfected with a vector pSV2AL-A 5' containing the SV40 promoter driving expression of the firefly luciferase gene and a second vector pSV2 NeoBam containing a neomycin resistant marker. Transfections were carried out using the Lipofectin Reagent kit and procedure from Gibco BRL Research Products Division Life Technologies Inc. Transformants were selected by picking individual colonies grown in Dulbecco's modified Eagle's medium supplemented with 10% fetal bovine serum and containing 500 µg per ml of geneticin. Individual clones were selected, lysed and assayed for luciferase production. […]

[2] = hamsters, 0.2% (w/w) in diet for one week (100 mg/kg/day), negative values = serum cholesterol increased relative to control
[3] = NA is not active, 30% luciferase activity cutoff point (footnote 1)
[4] = tests using 30% luciferase activity cutoff point (footnote 1)
[5] = 30% luciferase activity cutoff point (footnote 1)
[6] = 15% luciferase activity cutoff point (footnote 2)
[7] = tests using 15% luciferase activity cutoff point (footnote 2)

With `CC=CC[C@@H]1[C@@H](O)CC[C@@]2(C)[C@H]1CC[C@@H]1[C@@H]2CC[C@]2(C)[C@@H]([C@H](C)CCCC(C)C)CC[C@@H]12` [(12), (3β,4α,5α)-4-(2-butenyl)cholestan-3-ol] the inhibition in vivo at 100 mg/kg/day (Syrian Golden hamsters; [2]) was 27.4% and the “Serum Cholesterol Mean” value (Syrian Golden hamsters; hamsters) was 245 mg/dL.
In the case of `CC(C)CCC[C@@H](C)[C@H]1CC[C@H]2[C@@H]3CC[C@H]4[C@H](CC=C(Br)Br)[C@H](O)CC[C@]4(C)[C@H]3CC[C@]12C` [(14), (3a,4a,5a)-4-(3,3-dibromo-2-propenyl)cholestan-3-ol], the inhibition in vivo at 100 mg/kg/day (Syrian Golden hamsters; [2]) is reported as 23.2% and the “Serum Cholesterol Mean” value (Syrian Golden hamsters; hamsters) is reported as 259 mg/dL.
For “4a-4-(2-propenyl)cholestan-3-one [Example 72]”, the “Serum Cholesterol Mean” value (Syrian Golden hamsters; hamsters) was 267 mg/dL and the “Percent Lowering of Cholesterol from Control Value Mean” value (shortened to “Percent Lowering of Cholesterol”) (Syrian Golden hamsters; [2]) was 20.8%.
With `C=CC[C@@H]1[C@@H](O)CC[C@@]2(C)[C@H]1CC[C@@H]1[C@@H]2CC[C@]2(C)[C@@H]([C@H](C)CCCC(C)C)CC[C@@H]12` [Example 80, (3β,4α,5α,20β)-4-(2-propenyl)cholestan-3-ol] the inhibition in vivo at 100 mg/kg/day (Syrian Golden hamsters; [2]) was 20.2% and the “Serum Cholesterol Mean” value (Syrian Golden hamsters; hamsters) was 269 mg/dL.
In the case of `C=CCC1C(=O)CC[C@@]2(C)C1CC[C@H]1[C@@H]3CC[C@H]([C@H](C)CCCC(C)C)[C@@]3(C)CC[C@@H]12` (stereo partly shown) [(21), 4-(2-propenyl)cholestan-3-one], the inhibition in vivo at 100 mg/kg/day (Syrian Golden hamsters; [2]) is reported as 2% and the “Serum Cholesterol Mean” value (Syrian Golden hamsters; hamsters) is reported as 330 mg/dL.
`C=CC[C@@H]1[C@H](OC(=O)CCCCCCCCCCCCCCCCC)CC[C@@]2(C)[C@H]1CC[C@@H]1[C@@H]2CC[C@]2(C)[C@@H]([C@H](C)CCCC(C)C)CC[C@@H]12` [Example 99, (3a,4a,5a)-4-(2-propenyl)cholestan-3-ol octadecanoate (ester)] was tested, and the “Serum Cholesterol Mean” value (Syrian Golden hamsters; hamsters) was 328 mg/dL and the “Percent Lowering of Cholesterol” value (Syrian Golden hamsters; [2]) was 2.7%.
In the case of “(3β,4α,5α,20β)-4-(2-propenyl)cholestan-3-amine [(22)]”, the “Serum Cholesterol Mean” value (Syrian Golden hamsters; hamsters) is reported as 345 mg/dL and the “Percent Lowering of Cholesterol” value (Syrian Golden hamsters; [2]) is reported as -2.4%.
In the case of `CC(C)CCC[C@@H](C)[C@H]1CC[C@H]2[C@@H]3CCC4[C@H](Cc5ccccc5)C(=O)CC[C@]4(C)[C@H]3CC[C@]12C` (stereo partly shown) [(5), 4a-benzylcholestan-3-one], the “Serum Cholesterol Mean” value (Syrian Golden hamsters; hamsters) is reported as 202 mg/dL and the “Percent Lowering of Cholesterol” value (Syrian Golden hamsters; [2]) is reported as 40.2%.
In the case of `CC(C)CCC[C@@H](C)[C@H]1CC[C@H]2[C@@H]3CC[C@H]4C[C@H](O)CC[C@]4(C)[C@H]3CC[C@]12C` [(24), 5a-cholestan-3a-ol, reference compound], the inhibition in vivo at 100 mg/kg/day (Syrian Golden hamsters) is reported as -25% and the “Serum Cholesterol Mean” value (Syrian Golden hamsters; hamsters) is reported as 422 mg/dL.
`C=CC[C@H]1C2CC[C@H]3[C@@H]4CC[C@H]([C@@](C)(O)CCCC(C)C)[C@@]4(C)CC[C@@H]3[C@@]2(C)CC[C@H]1O` (stereo partly shown) [(13), (3a,4a)-4-(2-propenyl)cholestane-3,20-diol] was tested, and the inhibition in vivo at 100 mg/kg/day (Syrian Golden hamsters; [2]) was 25.1% and the “Serum Cholesterol Mean” value (Syrian Golden hamsters; hamsters) was 253 mg/dL.
For `C/C=C/C[C@@H]1[C@H](NC(C)=O)CC[C@@]2(C)[C@H]1CC[C@@H]1[C@@H]2CC[C@]2(C)[C@@H]([C@H](C)CCCC(C)C)CC[C@@H]12` [Example 9, [4a(E),5a]-4-(2-butenyl)-3a acetamidocholestane], the Emax [1, 3] was 60%, the MED [1, 4] was 2.0 and the RED [1, 5] was 0.88.
Work on `C[C@H](CCCN(C)C)[C@H]1CC[C@H]2[C@@H]3CC[C@@H]4C[C@H](O)CC[C@]4(C)[C@H]3C[C@H](O)[C@]12C` [Example 50, 3a, 12a-dihydroxy-25-azacoprostane] yielded an Emax [1, 3] of 81%, an MA% [1, 3] of 92% and an MED [1, 4] of 6.2.
Work on `C=C(C)C[C@@H]1[C@H](O)CC[C@@]2(C)[C@H]1CC[C@@H]1[C@@H]2CC[C@]2(C)[C@@H]([C@H](C)CCCC(C)C)CC[C@@H]12` [Example 89, (3a,4a,5a)-4-(2-methyl-2-propenyl)cholestan-3-ol] yielded an Emax [1, 3] of 102%, an MED [1, 4] of 2.8 and an RED [1, 5] of 0.25.
`CC(C)CCC[C@@H](C)[C@H]1CC[C@H]2[C@@H]3CCC4[C@H](Cc5ccc(C(F)(F)F)cc5)[C@H](O)CC[C@]4(C)[C@H]3CC[C@]12C` (stereo partly shown) [Example 26, 4a-(4-trifluoromethylbenzyl)cholestan-3a-ol] was tested, and the MA% [1, 6] was 59% and 34% and the MED [1, 7] was 9.1.
`COC(=O)c1ccc(C[C@H]2C3CC[C@H]4[C@@H]5CC[C@H]([C@H](C)CCCC(C)C)[C@@]5(C)CC[C@@H]4[C@@]3(C)CC[C@H]2O)cc1` (stereo partly shown) [Example 29, 4a-(4-methoxycarbonylbenzyl)cholestan-3a-ol] was tested, and the Emax [1, 6] was 37%, the MED [1, 7] was 14 and the RED [1, 6] was 2.5.
`CC(C)CCC[C@@H](C)[C@H]1CC[C@H]2[C@@H]3CCC4[C@H](Cc5ccc(Cl)c(Cl)c5)[C@H](O)CC[C@]4(C)[C@H]3CC[C@]12C` (stereo partly shown) [Example 27, 4a-(3,4-dichlorobenzyl)cholestan-3a-ol] gave an Emax [1, 6] of 32%, an MED [1, 7] of 9.1 and an RED [1, 6] of 4.0.
`CC(C)CCC[C@@H](C)[C@H]1CC[C@H]2[C@@H]3CCC4=C(Cc5ccccc5)[C@H](O)CC[C@]4(C)[C@H]3CC[C@]12C` [Example 38, 4-benzyl-4-cholesten-3a-ol] was tested, and the MA% [1, 6] was 33% and 58%, the MED [1, 7] was 84 and 42 and the RED [1, 6] was 7.37 and 3.7.
For `CC(C)CCC[C@@H](C)[C@H]1CC[C@H]2[C@@H]3CC[C@H]4[C@H](CC=C(F)F)[C@H](O)CC[C@]4(C)[C@H]3CC[C@]12C` [Example 85, (3a, 4a, 5a, 20β)-4-(3,3-difluoro-2-propenyl) cholestan-3-ol], the Emax [1, 3] was 138%, the MED [1, 4] was 2.7 and the RED [1, 5] was 0.36.
`CC(C)CCC[C@@H](C)[C@H]1CC[C@H]2[C@@H]3CC[C@H]4C[C@H](O)[C@H](Cc5ccc(F)cc5)C[C@]4(C)[C@H]3CC[C@]12C` [Example 79, (2a, 3a, 5a)-2-[(4-fluorophenyl)methyl]cholestan-3-ol] gave an Emax [1, 3] of 29%, an MED [1, 4] of 40.3 and an RED [1, 5] of 5.4.
In the case of `C=CC[C@H]1C2CC[C@@H]3[C@H](CC[C@]4(C)C(OCCCc5ccccc5)CC[C@@H]34)[C@@]2(C)CC[C@H]1O` (stereo partly drawn) [Example 67, (3α,4α)-17-(3-phenylpropoxy)-4-(2-propenyl)androstan-3-ol], the MA% [1, 6] is reported as 116% and 118% and 74%, the MA% [1, 3] is reported as 111% and 76% and the MED [1, 4] is reported as 11.1 and 22.2.
